# BindingDB's records for doi:10.1016/j.bmcl.2018.05.060 (Universidad De Granada, 2018)
# Target: Choline kinase alpha (Homo sapiens, UniProt P35790)
# Experiment: Inhibition of human choline kinase alpha1 using [methyl-14C]choline as substrate assessed as reduction in rate of incorporation of 14C from [methyl-14C]choline into phosphocholine preincubated for 5 mins followed by substrate addition measured after 10 mins by scintillation counting
# Chain of Choline kinase alpha (P35790 whole entry): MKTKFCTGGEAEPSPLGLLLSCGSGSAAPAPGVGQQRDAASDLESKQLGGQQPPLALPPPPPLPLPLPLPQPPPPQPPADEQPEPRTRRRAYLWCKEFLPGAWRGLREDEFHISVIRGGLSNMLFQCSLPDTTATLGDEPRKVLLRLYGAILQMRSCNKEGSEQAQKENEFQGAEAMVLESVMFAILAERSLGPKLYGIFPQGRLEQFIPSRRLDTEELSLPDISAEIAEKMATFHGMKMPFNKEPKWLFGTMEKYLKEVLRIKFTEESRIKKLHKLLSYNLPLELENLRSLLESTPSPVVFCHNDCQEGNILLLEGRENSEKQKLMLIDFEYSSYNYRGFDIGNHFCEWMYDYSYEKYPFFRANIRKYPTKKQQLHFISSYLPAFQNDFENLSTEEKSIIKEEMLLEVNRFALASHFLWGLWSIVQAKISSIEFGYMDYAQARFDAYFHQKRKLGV
compound,measurement,value
CN(c1ccccc1)c1cc[n+](Cc2ccc(OCCOc3ccc(C[n+]4ccc(N(C)c5ccccc5)c5ccccc54)cc3)cc2)c2ccccc12,IC50,6.85 µM
